# Several values for one entry are separate records, joined by “and”; a condition that tells them apart may be missing. Equal values may be shown once.
# Columns and labels:
# Assay type in all cases: cell-based
# [1] = test system: Chago; test: MTT assay, growth inhibition by deguelin or deguelin derivatives; details: 3 days
# [2] = test system: Cal1; test: as above; details: 3 days
# [3] = test system: COX-2; test: COX-1 and COX-2 expression by northern and western blotting; details: premalignant cells (1799, squamous HBE); 1 nM, 10 nM or 100 nM
# Protocol: COX-2 on the other hand, is found to be induced and expressed in neoplastic growth. […] Thus, it was determined whether deguelin regulates the expression of COX-2 in lung cancer cells. Normal, premalignant, and malignant lung cancer cells, NHBE, 1799, 1198, and 1170, were treated with 1 nM, 10 nM, or 100 nM deguelin for 1 day and COX-1 and COX-2 expression were analyzed by northern blotting.
# In this study, the protein and mRNA expression of COX-1 and COX-2 were tested in 1799 and squamous (Sq) HBE cells. These cells were treated with 1 nM, 10 nM, or 100 nM deguelin and the COX-1 and COX-2 RNA and analyzed by northern blotting and western blotting. Equal amount of mRNA in each lane was confirmed by northern blot analysis using GAPDH (data not shown).
# [4] = test system: H1299 NSCLC cells; test: Sensitization to chemotherapeutic agents and irradiation, MTT analysis; details: deguelin 100 nM 2 days; 10 nM paclitaxel, 50 nM doxorubicin or 4Gy irradiation for 1 day
# Protocol: FIG. 10. […] Results are expressed relative to the density of untreated cells. Bars, means±SD of a representative experiment done in six identical wells from five independently performed experiments.
# Additional studies were conducted to determine whether deguelin can sensitize cells resistant to a chemotherapeutic agent. H1299 NSCLC cells were incubated with deguelin (100 nM) for 2 days.
smiles,measurement,setting,value
COc1cc2c(cc1OC)[C@@H]1C(=O)c3ccc4c(c3O[C@@H]1CO2)C=CC(C)(C)O4 [Deguelin],Avg. % con,[1]; deguelin 10^−6M,0.56 % con
same,"MTT value, mean of replicates (unheaded line)",[1]; deguelin 10^−6M,0.086
same,"MTT value, replicate (unheaded line)",[1]; deguelin 10^−6M,0.094 and 0.086 and 0.078
same,Avg. % con,[1]; deguelin 10^−8M,0.65 % con
same,"MTT value, mean of replicates (unheaded line)",[1]; deguelin 10^−8M,0.1
same,"MTT value, replicate (unheaded line)",[1]; deguelin 10^−8M,0.101 and 0.093 and 0.106
same,Avg. % con,[1]; deguelin 10^−10M,1.24 % con
same,"MTT value, mean of replicates (unheaded line)",[1]; deguelin 10^−10M,0.191
same,"MTT value, replicate (unheaded line)",[1]; deguelin 10^−10M,0.192 and 0.184 and 0.197
same,Avg. % con,[1]; deguelin 10^−12M,1.18 % con
same,"MTT value, mean of replicates (unheaded line)",[1]; deguelin 10^−12M,0.182
same,"MTT value, replicate (unheaded line)",[1]; deguelin 10^−12M,0.175 and 0.179 and 0.192
same,Avg. % con,[2]; deguelin 10^−6M,0.54 % con
same,"MTT value, mean of replicates (unheaded line)",[2]; deguelin 10^−6M,0.132
same,"MTT value, replicate (unheaded line)",[2]; deguelin 10^−6M,0.13 and 0.128 and 0.138
same,Avg. % con,[2]; deguelin 10^−8M,0.88 % con
same,"MTT value, mean of replicates (unheaded line)",[2]; deguelin 10^−8M,0.214
same,"MTT value, replicate (unheaded line)",[2]; deguelin 10^−8M,0.204 and 0.221 and 0.216
same,Avg. % con,[2]; deguelin 10^−10M,1.16 % con
same,"MTT value, mean of replicates (unheaded line)",[2]; deguelin 10^−10M,0.281
same,"MTT value, replicate (unheaded line)",[2]; deguelin 10^−10M,0.29 and 0.294 and 0.26
same,Avg. % con,[2]; deguelin 10^−12M,1.30 % con
same,"MTT value, mean of replicates (unheaded line)",[2]; deguelin 10^−12M,0.317
same,"MTT value, replicate (unheaded line)",[2]; deguelin 10^−12M,0.305 and 0.328 and 0.319
same,induced COX-2 expression,[3],downregulated
same,sensitization to chemotherapeutic agents,[4],sensitizes cancer cells to chemotherapeutic agents
